Experiments:
Format in all cases: in vivo
[1] = test system: galium (catchweed bedstraw, Galium aparine); test: Test C preemergence, plant response rating
[2] = test system: johnsongrass (Sorghum halepense); test: Test C preemergence, plant response rating
[3] = test system: barnyardgrass (Echinochloa crus-galli); test: Test C preemergence, plant response rating; details: Preemergence
[4] = test system: pigweed, palmer (palmer pigweed, Amaranthus palmeri); test: Test C preemergence, plant response rating
kochia (Kochia scoparia) = test: Test C preemergence, plant response rating
[5] = test system: surinam grass (Brachiaria decumbens); test: Test C preemergence, plant response rating
[6] = test system: wild poinsettia (Euphorbia heterophylla); test: Test C preemergence, plant response rating
[7] = test system: windgrass (Apera spica-venti); test: Test C preemergence, plant response rating
[8] = test system: oat, wild (wild oat Avena fatua); test: Test C preemergence, plant response rating
[9] = test system: blackgrass (Alopecurus myosuroides); test: Test C postemergence, plant response rating; details: for Plant response rating, Blackgrass: scale 0 to 100; for Blackgrass plant response rating: scale 0 to 100 (0 no effect, 100 complete control)
In short: (§1)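 Visual injury score, 0 = no effect, 100 = complete control, assigned against untreated controls after 13 to 15 d in the greenhouse. Compounds were applied in a surfactant-containing non-phytotoxic solvent mix, preemergence to seeded loam/sand or silt loam soil, or postemergence to 1- to 4-leaf plants (2 to 18 cm).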

[10] = test system: chickweed (common chickweed, Stellaria media); test: Test C postemergence, plant response rating; details: for Chickweed plant response rating: scale 0 to 100 (0 no effect, 100 complete control)
In short: as §1

[11] = test system: lambsquarters (Chenopodium album); test: Test C postemergence, plant response rating; details: for Lambsquarters plant response rating: scale 0 to 100 (0 no effect, 100 complete control)
In short: as §1

[12] = test system: morningglory (Ipomoea coccinea); test: Test C postemergence, plant response rating; details: for Morningglory plant response rating: scale 0 to 100 (0 no effect, 100 complete control)
In short: as §1

[13] = test system: nutsedge, yellow (yellow nutsedge, Cyperus esculentus); test: Test C postemergence, plant response rating; details: for Nutsedge, Yellow plant response rating: scale 0 to 100 (0 no effect, 100 complete control)
In short: as §1

[14] = test system: oat, wild (wild oat Avena fatua); test: Test C postemergence, plant response rating; details: for Oat, Wild plant response rating: scale 0 to 100 (0 no effect, 100 complete control)
In short: as §1

[15] = test system: ragweed (common ragweed, Ambrosia elatior); test: Test C postemergence, plant response rating; details: for Ragweed plant response rating: scale 0 to 100 (0 no effect, 100 complete control)
In short: as §1

[16] = test system: ryegrass, Italian (Italian ryegrass, Lolium multiflorum); test: Test C postemergence, plant response rating; details: for Ryegrass, Italian plant response rating: scale 0 to 100 (0 no effect, 100 complete control)
In short: as §1

[17] = test system: velvetleaf (Abutilon theophrasti); test: Test C postemergence, plant response rating
In short: as §1

[18] = test system: wheat (winter wheat, Triticum aestivum); test: Test C postemergence, plant response rating
In short: as §1

[19] = 125 g ai/ha, scale 0 to 100 (0 no effect, 100 complete control)

`N#Cc1cccc(Oc2ncc(Cl)cn2)c1COCCC(F)(F)F` [Compound 80] was tested, and the “Plant response rating, Galium” value ([1]; 31 g ai/ha, scale 0 to 100) was 5, the “Plant response rating, Galium” value ([1]; 62 g ai/ha, scale of 0 to 100) was 75 and the “Plant response rating, Galium” value ([1]; 125 g ai/ha, scale of 0 to 100) was 98. The “Plant response rating, Johnsongrass” value ([2]; 31 g ai/ha, scale 0 to 100) was 30, the “Plant response rating, Johnsongrass” value ([2]; 62 g ai/ha, scale 0 to 100) was 55 and the “Plant response rating, Johnsongrass” value ([2]; 125 g ai/ha, scale of 0 to 100) was 60. For the same compound, the “Plant response rating, Barnyardgrass” value ([3]; 62 g ai/ha, scale of 0 to 100) was 70, the “Plant response rating, Barnyardgrass” value ([3]; 125 g ai/ha, scale of 0 to 100) was 100 and the “Plant response rating, Barnyardgrass” value ([3]; 16 g ai/ha, scale 0 to 100) was 10. The “Plant response rating, Barnyardgrass” value ([3]; 31 g ai/ha, scale 0 to 100) was 30, the “Plant response rating, Pigweed, Palmer” value ([4]; 31 g ai/ha, scale 0 to 100) was 85 and the “Plant response rating, Pigweed, Palmer” value ([4]; 62 g ai/ha, scale 0 to 100) was 100. The “Plant response rating, Pigweed, Palmer” value ([4]; 125 g ai/ha, scale of 0 to 100) was 98, the “Plant response rating, Kochia” value (kochia (Kochia scoparia); 31 g ai/ha, scale 0 to 100) was 95 and the “Plant response rating, Kochia” value (kochia (Kochia scoparia); 62 g ai/ha, scale 0 to 100) was 100. The “Plant response rating, Kochia” value (kochia (Kochia scoparia); 125 g ai/ha, scale of 0 to 100) was 100, the “Plant response rating, Surinam Grass” value ([5]; 31 g ai/ha, scale 0 to 100) was 50 and the “Plant response rating, Surinam Grass” value ([5]; 62 g ai/ha, scale 0 to 100) was 60. For the same compound, the “Plant response rating, Surinam Grass” value ([5]; 125 g ai/ha, scale of 0 to 100) was 98, the “Plant response rating, Poinsettia, Wild” value ([6]; 31 g ai/ha, scale 0 to 100) was 30 and the “Plant response rating, Poinsettia, Wild” value ([6]; 62 g ai/ha, scale 0 to 100) was 40. For the same compound, the “Plant response rating, Poinsettia, Wild” value ([6]; 125 g ai/ha, scale of 0 to 100) was 85, the “Plant response rating, Windgrass” value ([7]; 31 g ai/ha, scale 0 to 100) was 60 and the “Plant response rating, Windgrass” value ([7]; 62 g ai/ha, scale 0 to 100) was 100. For the same compound, the “Plant response rating, Windgrass” value ([7]; 125 g ai/ha, scale of 0 to 100) was 100, the “Plant response rating, Oat, Wild” value ([8]; 31 g ai/ha, scale 0 to 100) was 0 and the “Plant response rating, Oat, Wild” value ([8]; 62 g ai/ha, scale 0 to 100) was 10. For the same compound, the “Plant response rating, Oat, Wild” value ([8]; 125 g ai/ha, scale of 0 to 100) was 30, the “Plant response rating, Blackgrass” value ([9]; 16 g ai/ha) was 0 and the “Plant response rating, Blackgrass” value ([9]; 31 g ai/ha) was 5. For the same compound, the “Blackgrass plant response rating” value ([9]; 62 g ai/ha) was 5, the “Blackgrass plant response rating” value ([9]; 125 g ai/ha) was 25 and the “Plant response rating, Chickweed” value ([10]; 16 g ai/ha, scale of 0 to 100) was 60. The “Plant response rating, Chickweed” value ([10]; 31 g ai/ha, scale 0 to 100) was 75, the “Chickweed plant response rating” value ([10]; 62 g ai/ha) was 75 and the “Chickweed plant response rating” value ([10]; 125 g ai/ha) was 90. The “Plant response rating, Lambsquarters” value ([11]; 16 g ai/ha, scale of 0 to 100) was 50, the “Plant response rating, Lambsquarters” value ([11]; 31 g ai/ha, scale 0 to 100) was 75 and the “Lambsquarters plant response rating” value ([11]; 62 g ai/ha) was 80. For the same compound, the “Lambsquarters plant response rating” value ([11]; 125 g ai/ha) was 85, the “Plant response rating, Morningglory” value ([12]; 16 g ai/ha, scale of 0 to 100) was 25 and the “Plant response rating, Morningglory” value ([12]; 31 g ai/ha, scale 0 to 100) was 35. For the same compound, the “Morningglory plant response rating” value ([12]; 62 g ai/ha) was 55, the “Morningglory plant response rating” value ([12]; 125 g ai/ha) was 60 and the “Plant response rating, Nutsedge, Yellow” value ([13]; 16 g ai/ha, scale of 0 to 100) was 0. The “Plant response rating, Nutsedge, Yellow” value ([13]; 31 g ai/ha, scale 0 to 100) was 0, the “Nutsedge, Yellow plant response rating” value ([13]; 62 g ai/ha) was 5 and the “Nutsedge, Yellow plant response rating” value ([13]; 125 g ai/ha) was 5. The “Plant response rating, Oat, Wild” value ([14]; 16 g ai/ha, scale of 0 to 100) was 0, the “Plant response rating, Oat, Wild” value ([14]; 31 g ai/ha, scale 0 to 100) was 0 and the “Oat, Wild plant response rating” value ([14]; 62 g ai/ha) was 10. The “Oat, Wild plant response rating” value ([14]; 125 g ai/ha) was 5, the “Plant response rating, Ragweed” value ([15]; 16 g ai/ha, scale of 0 to 100) was 5 and the “Plant response rating, Ragweed” value ([15]; 31 g ai/ha, scale 0 to 100) was 10. For the same compound, the “Ragweed plant response rating” value ([15]; 62 g ai/ha) was 15, the “Ragweed plant response rating” value ([15]; 125 g ai/ha) was 35 and the “Plant response rating, Ryegrass, Italian” value ([16]; 16 g ai/ha, scale of 0 to 100) was 0. The “Plant response rating, Ryegrass, Italian” value ([16]; 31 g ai/ha, scale 0 to 100) was 0, the “Ryegrass, Italian plant response rating” value ([16]; 62 g ai/ha) was 5 and the “Ryegrass, Italian plant response rating” value ([16]; 125 g ai/ha) was 5. The “Plant response rating, Velvetleaf” value ([17]; 16 g ai/ha, scale of 0 to 100) was 30, the “Plant response rating, Velvetleaf” value ([17]; 31 g ai/ha, scale 0 to 100) was 35 and the “Velvetleaf plant response rating” value [17, 19] was 55. For the same compound, the “Plant response rating, Wheat” value ([18]; 16 g ai/ha, scale of 0 to 100) was 0, the “Plant response rating, Wheat” value ([18]; 31 g ai/ha, scale 0 to 100) was 0 and the “Wheat plant response rating” value [18, 19] was 15.
